{
  "source": "patent US20090239791A1",
  "about": "“PHARMACEUTICAL COMPOSITION CONTAINING LIPOPHILIC SUBSTANCE WHICH INHIBITS IL-2 PRODUCTION” (Astellas Pharma Inc., priority 2007, published 2009)",
  "origin": "cited, not measured here",
  "test_system": "human mixed lymphocyte reaction",
  "details": "Transplant Proceedings, No 5, Suppl 6, 36-39, 1987",
  "data": [
    {"smiles": "C=CC[C@@H]1/C=C(\\C)C[C@H](C)C[C@H](OC)C2O[C@@](O)(C(=O)C(=O)N3CCCC[C@H]3C(=O)O[C@H](/C(C)=C/[C@@H]3CC[C@@H](O)[C@H](OC)C3)[C@H](C)[C@@H](O)CC1=O)[C@H](C)C[C@@H]2OC", "note": "(relative stereo) [Tacrolimus, [3S-[3R*[E(1S*,3S*,4S*)],4S*,5R*,8S*,9E,12R*,14R*,15S*,16R*,18S*,19S*,26aR*]]-5,6,8,11,12,13,14,15,16,17,18,19,24,25,26,26a-hexadecahydro-5,19-dihydroxy-3-[2-(4-hydroxy-3-methoxycyclohexyl)-1-methylethenyl]-14,16-dimethoxy-4,10,12,18-tetramethyl-8-(2-propenyl)-15,19-epoxy-3H-pyrido[2,1-c][1,4]oxaazacyclotricosine-1,7,20,21(4H,23H)-tetrone, monohydrate]", "values": [
      {"measurement": "IC50 (a 50% inhibitory drug concentration in a human mixed lymphocyte reaction)", "value": 0.18, "unit": "ng/mL"}
    ]}
  ]
}
